Melting point data for 121 molecules are collected here from a melting point compilation (Tetko et al.).

What is called melting point is the temperature, or range, at which the solid turns liquid.

Molecules are shown by their SMILES.

In turn, `Cc1ccc(S(=O)(=O)C2(C(=O)O)CCCC2)cc1` registered a melting point of 131 to 133 °C.

In turn, `O=S1(=O)C=CCC1` gave a melting point of 62 to 64 °C.

Molecule `ON=Cc1ccc(Oc2ncccn2)cc1` registered a melting point of 177 to 179 °C.

Molecule `CCOc1ccc(S(=O)(=O)NCC(=O)O)cc1` had a melting point of 139 to 141 °C.

As for `O=C(O)CC(c1ccccc1)N1CCOC1=O` (stereo unspecified), the melting point is 123 to 125 °C.

`CC(C)(C)OC(=O)N1CCN(CCN)CC1` gave a melting point of 34 to 36 °C.

In turn, `Cc1cccc(NC(=O)Nc2cccc(CN)c2)c1` showed a melting point of 163 to 165 °C.

The molecule `COC(=O)N(C)c1ccccc1C(=O)O` returned a melting point of 138 to 140 °C.

In the case of `COC(=O)c1cc(S(=O)(=O)Cl)c(F)cc1F`, the melting point lay in the range of 104 to 106 °C.

In the case of `COc1cc2ncn(CCCC(=O)O)c(=O)c2cc1OC`, the melting point was 198 to 200 °C.

Consider `Cc1cc(OCCO)ccc1N`, for which the melting point lay within 62 to 64 °C.

`O=C(O)C1CSCN1C(=O)c1c[nH]c2ccccc12` (stereo unspecified) showed a melting point of 159 to 161 °C.

`O=S(=O)(c1ccc2c(c1)CCCN2)N1CCCCC1` came in with a melting point of 121 to 123 °C.

In turn, `CCOc1cc(-c2ccccc2)sc1C(=O)O` gave a melting point of 174 to 176 °C.

Take `Cc1noc2ncc(S(=O)(=O)Cl)cc12`: the melting point fell in the range of 110 to 112 °C.

Consider `Nc1nc(-c2ccc3ccccc3c2)n[nH]1`, for which the melting point is 205 to 207 °C.

`CC(=O)N(c1ccc(Cl)cc1)c1nc(CCl)cs1` displayed a melting point of 145 to 147 °C.

Consider `Nc1ccc(-n2ccnc2)cc1`, for which the melting point was 143 to 147 °C.

`CC(C)Oc1ccccc1CC(=O)O` had a melting point of 92 to 94 °C.

As for `CC(=O)c1c(C)nn(CCS(C)(=O)=O)c1C`, the melting point fell in the range of 139 to 141 °C.

The molecule `Nc1nc(C(F)(F)F)c[nH]1` yielded a melting point of 121 to 123 °C.

Consider `COC(=O)Cc1ccc(S(=O)(=O)Cl)s1`, for which the melting point is 59 to 61 °C.

In turn, `CC(=O)c1cc(CCC(=O)O)oc1C` returned a melting point of 90 to 95 °C.

For `Nc1cc(-c2cc(F)cc(F)c2)no1`, the melting point was 114 to 116 °C.

`Nc1ccccc1NC(=O)c1ccc2ccccc2n1`: the melting point fell in the range of 151 to 153 °C.

`COc1ccc(-c2ccc(C(=O)O)c(F)c2)cc1` showed a melting point of 201 to 203 °C.

In turn, `Cc1sc(C(N)=O)cc1S(=O)(=O)Cl` registered a melting point of 122 to 124 °C.

Molecule `O=C(O)C1(c2ccc(Br)cc2)CCOCC1` displayed a melting point of 195 to 197 °C.

For the molecule `O=C(CCl)NC1CCOc2ccccc21` (stereo unspecified), the melting point fell in the range of 86 to 88 °C.

In the case of `NC(=NO)c1ccccc1CN1CCC(O)CC1`, the melting point is 137 to 139 °C.

Regarding `O=C(O)c1c[nH]nc1-c1ccc(F)c(Cl)c1`, the melting point fell in the range of 282 to 284 °C.

On to `CNC1(CO)CCC(c2ccccc2)CC1` (stereo unspecified), for which the melting point is 127 to 129 °C.

`O=C(O)C1CCCN(C(=O)N2CCc3sccc3C2)C1` (stereo unspecified) yielded a melting point of 66 to 68 °C.

Molecule `Cc1sc(=O)n(CC(=O)O)c1C` returned a melting point of 186 to 188 °C.

The molecule `CC(C)(C)CCS(=O)(=O)Cl` gave a melting point of 33 to 35 °C.

Molecule `Nc1ncc(-c2ccccc2)[nH]1` came in with a melting point of 139 to 141 °C.

`CCn1c(C)c(C(=O)O)c2cc(OC)ccc21` registered a melting point of 173 to 175 °C.

`CCc1ccccc1OCC(=O)NN` showed a melting point of 107 to 109 °C.

Molecule `COC(=O)C(=O)CC(=O)c1cccnc1` gave a melting point of 113 to 115 °C.

Regarding `CNC(=O)c1cccc(Cl)n1`, the melting point was in the range of 42 to 44 °C.

Consider `Clc1ccc2[nH]c(C3CCCN3)nc2c1` (stereo unspecified), for which the melting point lay within 124 to 126 °C.

For `CNc1ccc(-c2ccccc2)nn1`, the melting point is 157 to 159 °C.

Consider `NS(=O)(=O)CCN1C(=O)c2ccccc2C1=O`, for which the melting point was in the range of 209 to 211 °C.

`COC(=O)Cn1cc(C(C)=O)nn1` returned a melting point of 79 to 81 °C.

The molecule `CC(=O)N1CCN(S(=O)(=O)c2ccc(C(=O)O)cc2)CC1` registered a melting point of 277 to 279 °C.

With `COc1cc(C(=O)O)ccc1OCc1ccc(Br)s1`, the melting point was 179 to 181 °C.

Molecule `CC(C)(C)OC(=O)Nc1ccc(C=O)cn1` showed a melting point of 169 to 171 °C.

On to `NC(=O)CCn1ccc(N)n1`, for which the melting point lay within 142 to 144 °C.

For `CS(=O)(=O)c1ccc(F)c(NC(=O)CCl)c1`, the melting point fell in the range of 126 to 128 °C.

Molecule `Nc1ccc(CN2CCC(CO)CC2)cc1` showed a melting point of 165 to 167 °C.

`O=C1CCCN1c1cccc(Br)c1` returned a melting point of 69 to 71 °C.

The molecule `COCCOC(=O)c1c(C)[nH]c(C(=O)O)c1C` registered a melting point of 177 to 179 °C.

On to `Nc1nnc(SCC(=O)O)s1`, for which the melting point lay within 196 to 198 °C.

`O=C(O)c1cc(S(=O)(=O)Cl)c(Cl)cc1F` displayed a melting point of 144 to 146 °C.

Turning to `NS(=O)(=O)CCOc1ccccc1`, the melting point fell in the range of 102 to 104 °C.

For `CC(C)N1CCC(C(=O)O)CC1`, the melting point is 168 to 170 °C.

`CSCc1ccc(C(=O)O)cc1` showed a melting point of 145 to 147 °C.

`CCCS(=O)(=O)N1CCC(=NO)CC1` had a melting point of 146 to 148 °C.

Take `Cc1oc(-c2cccs2)nc1C(=O)O`: the melting point is 196 to 198 °C.

Molecule `Cc1ccc(F)cc1NC(=O)C(C)Cl` (stereo unspecified) returned a melting point of 101 to 103 °C.

As to `O=C(O)CSC(=Cc1ccco1)c1nc2ccccc2s1`, the melting point fell in the range of 133 to 135 °C.

As for `CC(Cc1ccc(Cl)cc1)C(=O)O` (stereo unspecified), the melting point was 49 to 51 °C.

Molecule `N#Cc1ccc(F)c(CBr)c1` registered a melting point of 44 to 46 °C.

For `COCCCNc1c(N)n(Cc2ccccc2)c(=O)[nH]c1=O`, the melting point fell in the range of 148 to 150 °C.

As for `CCS(=O)c1ccccc1C(=O)O` (stereo unspecified), the melting point fell in the range of 128 to 130 °C.

The molecule `Nc1ccc(C(=O)NC2CCOCC2)cc1` yielded a melting point of 217 to 219 °C.

Turning to `COC(=O)C(NS(C)(=O)=O)C(C)C` (stereo unspecified), the melting point was 46 to 48 °C.

In turn, `Cc1cnn([N+](=O)[O-])c1` yielded a melting point of 41 to 43 °C.

`O=C(O)CSc1ccc2c(c1)CCC2` returned a melting point of 64 to 66 °C.

Molecule `CNC(=O)CCC(F)(F)F` had a melting point of 111 to 113 °C.

`COc1ccc(C=C2CCCc3c2nc2ccccc2c3C(=O)O)cc1OC` had a melting point of 110 to 114 °C.

`O=[N+]([O-])c1c[nH]ccc1=NCC1CCCO1` (stereo unspecified) had a melting point of 72 to 74 °C.

Turning to `CC1Cc2ccccc2N1S(=O)(=O)c1ccc(F)c(C(=O)O)c1` (stereo unspecified), the melting point was 200 to 202 °C.

`Cc1ccc(-n2nc(C)cc2N)cc1` gave a melting point of 118 to 120 °C.

For the molecule `Fc1ccc(-c2nnc(S)n2CCN2CCOCC2)cc1`, the melting point is 212 to 214 °C.

In the case of `Cc1ncsc1C(=O)Cl`, the melting point lay within 62 to 64 °C.

Molecule `CC(=O)c1cc(C(=O)C(Cl)(Cl)Cl)n(C)c1` had a melting point of 133 to 135 °C.

For the molecule `Ic1ccc(OCc2ccc3ncccc3c2)cc1`, the melting point fell in the range of 161 to 163 °C.

`O=C(O)c1cc(Br)c(S(=O)(=O)Cl)c(Br)c1`: the melting point was in the range of 199 to 201 °C.

With `O=C(O)c1sccc1S(=O)(=O)N1CCC(O)CC1`, the melting point is 219 to 221 °C.

`CN1CCN(C(=O)c2ccccc2C(=O)O)CC1`: the melting point lay in the range of 274 to 276 °C.

On to `Cc1cc(C#N)ccc1-n1cncn1`, for which the melting point is 139 to 141 °C.

Regarding `COc1ccc2c(-c3ccccc3)cc(NN)nc2c1`, the melting point lay in the range of 119 to 121 °C.

Take `COc1ccc(/C=C/c2cc(C(=O)O)c3cc(Br)ccc3n2)cc1`: the melting point is 295 to 297 °C.

With `O=C(O)CNS(=O)(=O)c1ccc(Cl)s1`, the melting point was 142 to 144 °C.

The molecule `Clc1ccc(Br)c2ccccc12` came in with a melting point of 62 to 64 °C.

For `Cn1c(-c2ccccc2)c(C=O)c2ccccc21`, the melting point was 125 to 127 °C.

In turn, `O=C1Nc2c(Br)ccc(Br)c2C1=O` returned a melting point of 271 to 273 °C.

For `C#CCN1C(=O)C=CC1=O`, the melting point was in the range of 46 to 48 °C.

`Cc1ccncc1C(=O)O` yielded a melting point of 199 to 201 °C.

The molecule `O=S1(=O)CCC(O)c2ccccc21` (stereo unspecified) had a melting point of 94 to 96 °C.

Molecule `O=C(O)CCC(=O)c1ccc2c(c1)-c1ccccc1C2` displayed a melting point of 189 to 191 °C.

Regarding `O=C1COc2ccccc2C(=O)N1`, the melting point lay within 149 to 151 °C.

`Cc1ccc(C(=O)N2CCOCC2)cc1N` returned a melting point of 153 to 155 °C.

For `CNc1ccnc2ccncc12`, the melting point is 223 to 225 °C.

`O=C(CCl)c1c(-c2ccc(F)cc2)[nH]c2ccccc12`: the melting point lay in the range of 158 to 160 °C.

The molecule `Cc1cc(CC(=O)O)n[nH]1` had a melting point of 116 to 118 °C.

On to `Cc1sc(C(=O)O)cc1CS(C)(=O)=O`, for which the melting point was 233 to 235 °C.

On to `Cc1n[nH]c(C)c1S(=O)(=O)N1CCCCC1`, for which the melting point was 72 to 73 °C.

In turn, `CCOC(Cn1cc(C(=O)O)nn1)OCC` returned a melting point of 138 to 140 °C.

The molecule `O=C(O)C1CCN(C(=O)NCc2ccco2)CC1` yielded a melting point of 138 to 140 °C.

`O=C(O)c1noc(-c2cc(Cl)ccc2F)n1` displayed a melting point of 113 to 115 °C.

The molecule `Nc1nc2c(F)c(F)c(F)cc2s1` showed a melting point of 160 to 164 °C.

Molecule `O=C(O)C1=CCCS1` displayed a melting point of 126 to 128 °C.

Regarding `Nc1ccccc1C(O)C(F)(F)F` (stereo unspecified), the melting point lay within 119 to 121 °C.

With `CC(=O)c1cc([N+](=O)[O-])c(Cl)s1`, the melting point was in the range of 74 to 76 °C.

For `COc1ccc(NS(=O)(=O)c2ccc(N)c(N)c2)cc1`, the melting point fell in the range of 163 to 165 °C.

For `O=c1[nH]nc(Br)c(=O)[nH]1`, the melting point was 188 to 190 °C.

`CCOc1ccccc1C(=O)NC(C(=O)O)C(C)C` (stereo unspecified) displayed a melting point of 127 to 129 °C.

As for `Cc1cc(C(=O)O)c(Cl)cc1F`, the melting point fell in the range of 149 to 151 °C.

As for `COc1ccc(CCN)c(O)c1`, the melting point lay in the range of 98 to 100 °C.

`NNC(=O)CSc1nc2ccccc2o1` showed a melting point of 169 to 171 °C.

Take `CC(Oc1cccnc1)C(=O)O` (stereo unspecified): the melting point was in the range of 126 to 128 °C.

Molecule `Brc1ccc(NCc2ccccn2)cc1` returned a melting point of 76 to 78 °C.

For the molecule `Cc1cc(C(=O)O)nn1C1CCCCC1`, the melting point lay in the range of 145 to 147 °C.

`CS(=O)(=O)Cc1cc(N)ccc1Cl` yielded a melting point of 135 to 137 °C.

For `COc1ccccc1-c1nc(C(=O)O)cs1`, the melting point was in the range of 184 to 186 °C.

`CNS(=O)(=O)c1ccc(CCC(=O)O)cc1` had a melting point of 188 to 190 °C.

Turning to `CC1CCN(CC(O)CN)CC1` (stereo unspecified), the melting point is 63 to 65 °C.

`NS(=O)(=O)CCCN1C(=O)c2ccccc2C1=O` displayed a melting point of 173 to 175 °C.

`Cc1c(NC(=O)CSc2nnc(N)s2)c(=O)n(-c2ccccc2)n1C` showed a melting point of 142 to 144 °C.
